Experiments:
Parameters in all cases: Invitrogen kinase panel, per cent inhibition of kinase activity
Misshapen-like Kinase 1 = target: T1, Misshapen-like Kinase 1 (Homo sapiens, UniProt Q8N4C8); conditions: 10 µM, inhibitor
T1 construct: gene MINK1
Method: (§1) To discover a potent and selective BDK inhibitor, a subset of the Pfizer compound collection was screened. […] Off target activity was assessed in both CEREP and kinase panels (Supplementary Tables 2, 3).

LCK = LCK (Homo sapiens, UniProt P06239); conditions: 10 µM, inhibitor
Chain of LCK (P06239 whole entry): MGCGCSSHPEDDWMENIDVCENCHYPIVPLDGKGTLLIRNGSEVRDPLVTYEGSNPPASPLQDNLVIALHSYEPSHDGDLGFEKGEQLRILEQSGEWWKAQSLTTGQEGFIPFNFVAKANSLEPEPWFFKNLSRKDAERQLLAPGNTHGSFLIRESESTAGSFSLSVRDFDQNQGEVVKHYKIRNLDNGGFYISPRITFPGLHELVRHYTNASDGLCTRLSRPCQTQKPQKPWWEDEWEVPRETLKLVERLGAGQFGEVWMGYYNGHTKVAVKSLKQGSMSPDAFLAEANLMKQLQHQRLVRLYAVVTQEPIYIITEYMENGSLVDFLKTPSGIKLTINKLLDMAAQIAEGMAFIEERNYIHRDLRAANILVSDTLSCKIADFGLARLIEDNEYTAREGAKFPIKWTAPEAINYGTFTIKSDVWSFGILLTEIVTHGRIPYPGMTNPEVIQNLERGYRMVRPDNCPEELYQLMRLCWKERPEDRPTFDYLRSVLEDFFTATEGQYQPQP
Method: as §1

MAPK13 = MAPK13 (Homo sapiens, UniProt O15264); conditions: 10 µM, inhibitor
Chain of MAPK13 (O15264 whole entry): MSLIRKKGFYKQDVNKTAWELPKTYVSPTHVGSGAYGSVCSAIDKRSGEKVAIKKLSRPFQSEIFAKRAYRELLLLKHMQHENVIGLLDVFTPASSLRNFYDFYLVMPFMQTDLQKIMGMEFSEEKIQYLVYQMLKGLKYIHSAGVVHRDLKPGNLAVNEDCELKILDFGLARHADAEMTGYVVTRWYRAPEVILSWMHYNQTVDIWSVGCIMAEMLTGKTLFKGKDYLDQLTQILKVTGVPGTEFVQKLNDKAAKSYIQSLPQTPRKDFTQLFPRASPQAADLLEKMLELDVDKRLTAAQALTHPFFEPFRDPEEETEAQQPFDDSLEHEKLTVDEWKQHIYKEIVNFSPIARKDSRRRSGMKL
Method: as §1

CSNK1A1 = CSNK1A1 (Homo sapiens, UniProt P48729); conditions: 10 µM, inhibitor
Chain of CSNK1A1 (P48729 whole entry): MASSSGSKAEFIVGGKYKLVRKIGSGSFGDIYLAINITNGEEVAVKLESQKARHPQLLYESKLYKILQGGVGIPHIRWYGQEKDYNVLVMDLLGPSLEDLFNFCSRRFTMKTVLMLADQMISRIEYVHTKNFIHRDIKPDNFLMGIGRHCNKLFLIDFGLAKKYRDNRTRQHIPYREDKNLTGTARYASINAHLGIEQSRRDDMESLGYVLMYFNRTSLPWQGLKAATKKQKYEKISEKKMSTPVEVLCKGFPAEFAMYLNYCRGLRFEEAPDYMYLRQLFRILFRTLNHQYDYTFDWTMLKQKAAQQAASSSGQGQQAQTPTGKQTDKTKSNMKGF
Method: as §1

PIM-1 = target: T2, PIM-1 (Homo sapiens, UniProt P11309); conditions: 10 µM, inhibitor
T2 construct: gene PIM1
T2 sequence (P11309 whole entry): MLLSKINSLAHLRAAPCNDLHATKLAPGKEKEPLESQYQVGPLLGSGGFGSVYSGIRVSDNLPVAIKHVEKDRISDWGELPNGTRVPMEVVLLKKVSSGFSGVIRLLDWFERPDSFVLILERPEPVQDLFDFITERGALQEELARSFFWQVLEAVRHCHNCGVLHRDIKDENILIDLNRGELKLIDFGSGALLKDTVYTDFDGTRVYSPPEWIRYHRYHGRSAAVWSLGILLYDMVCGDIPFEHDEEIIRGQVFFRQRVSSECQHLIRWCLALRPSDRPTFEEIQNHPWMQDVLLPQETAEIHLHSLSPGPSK
Method: as §1

PIK3C3 = PIK3C3 (Homo sapiens, UniProt Q8NEB9); conditions: 10 µM, inhibitor
Chain of PIK3C3 (Q8NEB9 whole entry): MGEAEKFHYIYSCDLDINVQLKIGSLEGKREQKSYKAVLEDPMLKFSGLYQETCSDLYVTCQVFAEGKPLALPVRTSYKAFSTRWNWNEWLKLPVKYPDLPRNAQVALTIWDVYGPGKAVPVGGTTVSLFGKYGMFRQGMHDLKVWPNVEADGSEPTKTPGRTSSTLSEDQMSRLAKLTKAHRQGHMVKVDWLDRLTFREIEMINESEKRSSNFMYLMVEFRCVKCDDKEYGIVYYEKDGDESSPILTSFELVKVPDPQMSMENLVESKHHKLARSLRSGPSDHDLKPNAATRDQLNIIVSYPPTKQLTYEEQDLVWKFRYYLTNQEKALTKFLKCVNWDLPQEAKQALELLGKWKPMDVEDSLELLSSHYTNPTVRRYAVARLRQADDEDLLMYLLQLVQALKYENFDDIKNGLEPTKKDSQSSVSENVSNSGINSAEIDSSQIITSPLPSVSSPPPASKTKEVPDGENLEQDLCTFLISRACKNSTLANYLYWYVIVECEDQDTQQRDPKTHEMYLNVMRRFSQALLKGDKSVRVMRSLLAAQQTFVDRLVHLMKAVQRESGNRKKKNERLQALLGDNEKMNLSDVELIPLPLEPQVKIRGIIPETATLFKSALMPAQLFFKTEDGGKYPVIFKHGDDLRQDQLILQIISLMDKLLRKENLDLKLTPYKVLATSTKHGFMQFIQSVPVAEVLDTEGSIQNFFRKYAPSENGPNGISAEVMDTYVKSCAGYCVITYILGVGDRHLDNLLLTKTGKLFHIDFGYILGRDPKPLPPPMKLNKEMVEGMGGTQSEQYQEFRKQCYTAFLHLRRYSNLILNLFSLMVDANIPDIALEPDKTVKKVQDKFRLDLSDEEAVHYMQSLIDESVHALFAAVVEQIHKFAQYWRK
Method: as §1

PIK3CG = PIK3CG (Homo sapiens, UniProt P48736); conditions: 10 µM, inhibitor
Method: as §1

CAMK1 = CAMK1 (Homo sapiens, UniProt Q14012); conditions: 10 µM, inhibitor
Chain of CAMK1 (Q14012 whole entry): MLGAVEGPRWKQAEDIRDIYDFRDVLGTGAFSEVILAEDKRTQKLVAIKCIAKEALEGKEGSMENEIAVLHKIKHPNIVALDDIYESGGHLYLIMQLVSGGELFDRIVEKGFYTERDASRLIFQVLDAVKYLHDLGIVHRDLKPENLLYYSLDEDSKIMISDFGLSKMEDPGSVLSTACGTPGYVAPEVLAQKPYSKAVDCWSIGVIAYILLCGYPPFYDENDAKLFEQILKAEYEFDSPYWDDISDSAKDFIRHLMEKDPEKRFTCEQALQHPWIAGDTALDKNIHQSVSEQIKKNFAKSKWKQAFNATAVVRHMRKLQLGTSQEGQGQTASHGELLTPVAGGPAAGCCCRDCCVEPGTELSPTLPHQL
Method: as §1

SPHK2 = SPHK2 (Homo sapiens, UniProt Q9NRA0); conditions: inhibitor
Method: as §1

AURKA = target: T3, AURKA (Homo sapiens, UniProt O14965); conditions: 10 µM, inhibitor
T3 sequence (O14965 1-403): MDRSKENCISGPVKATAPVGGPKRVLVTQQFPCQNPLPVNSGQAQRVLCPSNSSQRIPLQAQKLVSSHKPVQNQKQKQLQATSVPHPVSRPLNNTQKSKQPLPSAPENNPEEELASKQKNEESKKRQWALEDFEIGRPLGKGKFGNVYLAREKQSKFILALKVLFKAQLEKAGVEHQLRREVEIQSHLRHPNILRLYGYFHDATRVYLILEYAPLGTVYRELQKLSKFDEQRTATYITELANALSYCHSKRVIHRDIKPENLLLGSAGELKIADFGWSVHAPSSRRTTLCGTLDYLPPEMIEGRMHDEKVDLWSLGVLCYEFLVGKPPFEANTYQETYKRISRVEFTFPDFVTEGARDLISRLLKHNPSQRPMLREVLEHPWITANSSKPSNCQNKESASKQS
Method: as §1

PRKCB2 = target: T4, PRKCB2 (Homo sapiens, UniProt P05771); conditions: 10 µM, inhibitor
T4 construct: gene PRKCB; isoform beta2
T4 sequence (P05771 whole entry, canonical isoform): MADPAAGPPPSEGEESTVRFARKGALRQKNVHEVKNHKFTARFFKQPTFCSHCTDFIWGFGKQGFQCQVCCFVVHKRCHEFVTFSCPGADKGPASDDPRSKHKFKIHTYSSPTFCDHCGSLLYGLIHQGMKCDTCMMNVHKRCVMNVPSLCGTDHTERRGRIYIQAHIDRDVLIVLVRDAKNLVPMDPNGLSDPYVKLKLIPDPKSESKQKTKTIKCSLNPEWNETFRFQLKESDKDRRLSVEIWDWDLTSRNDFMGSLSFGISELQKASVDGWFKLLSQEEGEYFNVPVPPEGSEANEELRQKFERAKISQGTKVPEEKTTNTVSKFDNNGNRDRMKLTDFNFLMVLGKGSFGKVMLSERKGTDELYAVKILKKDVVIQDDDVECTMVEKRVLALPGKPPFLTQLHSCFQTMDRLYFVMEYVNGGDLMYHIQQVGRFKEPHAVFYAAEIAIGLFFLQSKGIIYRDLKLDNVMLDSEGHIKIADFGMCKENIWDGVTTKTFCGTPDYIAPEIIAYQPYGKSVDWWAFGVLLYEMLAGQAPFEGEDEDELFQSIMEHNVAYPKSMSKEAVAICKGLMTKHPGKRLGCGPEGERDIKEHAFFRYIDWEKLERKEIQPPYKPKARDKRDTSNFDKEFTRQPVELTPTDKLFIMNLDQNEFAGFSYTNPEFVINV
Method: as §1

MARK1 = MARK1 (Homo sapiens, UniProt Q9P0L2); conditions: 10 µM, inhibitor
Chain of MARK1 (Q9P0L2 whole entry): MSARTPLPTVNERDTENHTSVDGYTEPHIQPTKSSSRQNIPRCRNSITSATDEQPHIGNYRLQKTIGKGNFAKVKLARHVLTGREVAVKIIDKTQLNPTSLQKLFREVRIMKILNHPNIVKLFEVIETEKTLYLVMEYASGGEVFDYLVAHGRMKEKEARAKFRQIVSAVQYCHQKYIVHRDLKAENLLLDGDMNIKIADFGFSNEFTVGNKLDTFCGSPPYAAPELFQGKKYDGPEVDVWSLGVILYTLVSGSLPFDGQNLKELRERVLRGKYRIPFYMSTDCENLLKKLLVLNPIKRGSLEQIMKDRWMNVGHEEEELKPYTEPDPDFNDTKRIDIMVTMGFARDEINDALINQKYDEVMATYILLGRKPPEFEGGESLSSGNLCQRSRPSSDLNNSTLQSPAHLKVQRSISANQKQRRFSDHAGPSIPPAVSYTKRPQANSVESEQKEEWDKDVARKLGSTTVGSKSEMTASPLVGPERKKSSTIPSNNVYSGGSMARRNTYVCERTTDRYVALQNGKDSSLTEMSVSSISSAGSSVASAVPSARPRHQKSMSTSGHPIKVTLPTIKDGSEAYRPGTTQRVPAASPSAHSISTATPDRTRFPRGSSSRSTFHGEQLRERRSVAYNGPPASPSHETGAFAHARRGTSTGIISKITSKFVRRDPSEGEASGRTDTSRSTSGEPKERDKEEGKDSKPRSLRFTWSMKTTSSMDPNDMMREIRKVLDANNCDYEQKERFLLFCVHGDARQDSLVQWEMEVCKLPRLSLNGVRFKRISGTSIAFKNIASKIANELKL
Method: as §1

JAK3 = target: T5, JAK3 (Homo sapiens, UniProt P52333); conditions: 10 µM, inhibitor
T5 sequence (P52333 1-1124): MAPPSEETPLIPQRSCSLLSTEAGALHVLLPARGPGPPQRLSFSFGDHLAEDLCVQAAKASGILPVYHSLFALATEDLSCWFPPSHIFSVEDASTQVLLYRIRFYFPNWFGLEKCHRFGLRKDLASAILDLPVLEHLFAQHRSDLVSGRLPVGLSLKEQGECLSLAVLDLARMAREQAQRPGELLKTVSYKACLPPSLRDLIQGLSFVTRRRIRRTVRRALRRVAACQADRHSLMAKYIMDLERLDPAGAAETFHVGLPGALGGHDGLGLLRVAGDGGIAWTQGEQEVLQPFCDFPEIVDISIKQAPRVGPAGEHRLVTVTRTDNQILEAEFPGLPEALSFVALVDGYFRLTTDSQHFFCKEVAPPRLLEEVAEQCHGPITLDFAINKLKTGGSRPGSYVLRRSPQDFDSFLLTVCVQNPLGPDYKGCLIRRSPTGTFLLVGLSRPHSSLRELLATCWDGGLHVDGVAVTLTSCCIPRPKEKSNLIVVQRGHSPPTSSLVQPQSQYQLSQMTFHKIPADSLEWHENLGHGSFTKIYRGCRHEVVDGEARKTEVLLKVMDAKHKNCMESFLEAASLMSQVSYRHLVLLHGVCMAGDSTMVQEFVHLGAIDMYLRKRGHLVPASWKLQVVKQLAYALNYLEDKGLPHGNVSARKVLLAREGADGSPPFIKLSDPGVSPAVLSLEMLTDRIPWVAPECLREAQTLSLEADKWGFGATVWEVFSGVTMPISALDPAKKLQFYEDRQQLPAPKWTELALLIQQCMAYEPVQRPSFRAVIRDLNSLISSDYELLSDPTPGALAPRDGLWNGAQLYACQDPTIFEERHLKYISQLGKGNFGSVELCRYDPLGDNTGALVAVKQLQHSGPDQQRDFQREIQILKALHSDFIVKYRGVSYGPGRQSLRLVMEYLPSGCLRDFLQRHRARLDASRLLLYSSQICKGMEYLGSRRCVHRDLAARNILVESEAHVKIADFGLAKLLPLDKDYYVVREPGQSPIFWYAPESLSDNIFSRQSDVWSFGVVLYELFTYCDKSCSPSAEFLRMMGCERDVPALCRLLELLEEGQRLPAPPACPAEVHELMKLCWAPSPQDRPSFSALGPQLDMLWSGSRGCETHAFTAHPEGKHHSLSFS
Method: as §1

BTK = BTK (Homo sapiens, UniProt Q06187); conditions: 10 µM, inhibitor
Chain of BTK (Q06187 whole entry): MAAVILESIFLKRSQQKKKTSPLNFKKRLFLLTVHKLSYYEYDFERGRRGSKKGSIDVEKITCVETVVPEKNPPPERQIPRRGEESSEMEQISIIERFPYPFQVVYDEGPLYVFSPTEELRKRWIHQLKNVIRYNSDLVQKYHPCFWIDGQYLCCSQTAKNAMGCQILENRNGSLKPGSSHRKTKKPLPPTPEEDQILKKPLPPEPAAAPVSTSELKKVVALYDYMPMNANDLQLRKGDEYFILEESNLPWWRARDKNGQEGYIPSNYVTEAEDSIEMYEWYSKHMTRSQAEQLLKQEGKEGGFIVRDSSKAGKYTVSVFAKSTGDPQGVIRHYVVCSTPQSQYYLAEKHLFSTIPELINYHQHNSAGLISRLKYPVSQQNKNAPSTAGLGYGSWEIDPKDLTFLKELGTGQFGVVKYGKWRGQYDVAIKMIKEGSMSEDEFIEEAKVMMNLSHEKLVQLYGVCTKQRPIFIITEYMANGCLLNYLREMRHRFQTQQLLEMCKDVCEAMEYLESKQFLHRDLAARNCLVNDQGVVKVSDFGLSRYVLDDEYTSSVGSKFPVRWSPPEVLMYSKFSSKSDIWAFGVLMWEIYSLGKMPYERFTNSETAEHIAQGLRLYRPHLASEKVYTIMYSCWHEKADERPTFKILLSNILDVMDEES
Method: as §1

O=C(O)c1sc2cc(F)sc2c1Cl [PF-07208254, 3-chloro-5-fluorothieno[3,2-b]thiophene-2-carboxylic acid]
ATP = Km % Inhibition PF-07208254 (Misshapen-like Kinase 1): -3.3% | ATP = 1 mM % Inhibition PF-07208254 (LCK): 9.9% | ATP = Km % Inhibition PF-07208254 (LCK): 20.6% | ATP = Km % Inhibition PF-07208254 (MAPK13): 3.6% | ATP = 1 mM % Inhibition PF-07208254 (CSNK1A1): -0.6% | ATP = Km % Inhibition PF-07208254 (CSNK1A1): 9.2% | ATP = Km % Inhibition PF-07208254 (PIM-1): 44.5% | ATP = Km % Inhibition PF-07208254 (PIK3C3): 7.3% | ATP = Km % Inhibition PF-07208254 (PIK3CG): 4.8% | ATP = 100 uM % Inhibition PF-07208254 (CAMK1): -7.9% | ATP = 10 uM % Inhibition PF-07208254 (SPHK2): -11.8% | ATP = 1 mM % Inhibition PF-07208254 (AURKA): -2.6% | ATP = Km % Inhibition PF-07208254 (AURKA): 9.4% | ATP = 1 mM % Inhibition PF-07208254 (PRKCB2): 1.9% | ATP = Km % Inhibition PF-07208254 (PRKCB2): -1.7% | ATP = 1 mM % Inhibition PF-07208254 (MARK1): 8.4% | ATP = Km % Inhibition PF-07208254 (MARK1): 2.1% | ATP = 1 mM % Inhibition PF-07208254 (JAK3): -4.1% | ATP = Km % Inhibition PF-07208254 (JAK3): 0.9% | ATP = 1 mM % Inhibition PF-07208254 (BTK): 0.8% | ATP = Km % Inhibition PF-07208254 (BTK): 5.9%

CCC1(COc2ccc(-c3csc(-c4ccccc4C(=O)O)n3)cn2)CC1 [PF-07247685, 2-(4-{6-[(1-ethylcyclopropyl)methoxy]pyridin-3-yl}-1,3-thiazol-2-yl)benzoic acid]
ATP = Km % Inhibition PF-07247685 (Misshapen-like Kinase 1): 21.9% | ATP = 1 mM % Inhibition PF-07247685 (LCK): 3.0% | ATP = Km % Inhibition PF-07247685 (LCK): 5.9% | ATP = Km % Inhibition PF-07247685 (MAPK13): -0.7% | ATP = 1 mM % Inhibition PF-07247685 (CSNK1A1): 2.1% | ATP = Km % Inhibition PF-07247685 (CSNK1A1): 3.1% | ATP = Km % Inhibition PF-07247685 (PIM-1): -2.6% | ATP = Km % Inhibition PF-07247685 (PIK3C3): 3.0% | ATP = Km % Inhibition PF-07247685 (PIK3CG): -4.6% | ATP = 100 uM % Inhibition PF-07247685 (CAMK1): -5.1% | ATP = 10 uM % Inhibition PF-07247685 (SPHK2): 3.9% | ATP = 1 mM % Inhibition PF-07247685 (AURKA): 2.2% | ATP = Km % Inhibition PF-07247685 (AURKA): 8.9% | ATP = 1 mM % Inhibition PF-07247685 (PRKCB2): 4.0% | ATP = Km % Inhibition PF-07247685 (PRKCB2): 9.4% | ATP = 1 mM % Inhibition PF-07247685 (MARK1): 7.5% | ATP = Km % Inhibition PF-07247685 (MARK1): 4.3% | ATP = 1 mM % Inhibition PF-07247685 (JAK3): -0.0% | ATP = Km % Inhibition PF-07247685 (JAK3): 0.8% | ATP = 1 mM % Inhibition PF-07247685 (BTK): 3.1% | ATP = Km % Inhibition PF-07247685 (BTK): -0.7%

Source: PMC10412597, “Small molecule branched-chain ketoacid dehydrogenase kinase (BDK) inhibitors with opposing effects on BDK protein levels” (Nature Communications, 2023)
